According to patent publication US12479847B2 (DANA-FARBER CANCER INSTITUTE, INC., priority 2019, dated 2025):

Legend:
Assay in all cases: KINOMEscan (ScanMAX) kinase profiling
Format in all cases: binding
panel of 468 kinases [1] = target: T1, panel of 468 kinases (Homo sapiens, UniProt Q2M2I8); conditions: AAK1; 1 μM; read-out: % control
T1 construct: purchased KINOMEscan (ScanMAX) service

panel of 468 kinases [2] = target: T2, panel of 468 kinases (Homo sapiens, UniProt Q8TDX7); conditions: NEK7; 1 μM; read-out: % control
T2 construct: purchased KINOMEscan (ScanMAX) service
T2 sequence (Q8TDX7 whole entry): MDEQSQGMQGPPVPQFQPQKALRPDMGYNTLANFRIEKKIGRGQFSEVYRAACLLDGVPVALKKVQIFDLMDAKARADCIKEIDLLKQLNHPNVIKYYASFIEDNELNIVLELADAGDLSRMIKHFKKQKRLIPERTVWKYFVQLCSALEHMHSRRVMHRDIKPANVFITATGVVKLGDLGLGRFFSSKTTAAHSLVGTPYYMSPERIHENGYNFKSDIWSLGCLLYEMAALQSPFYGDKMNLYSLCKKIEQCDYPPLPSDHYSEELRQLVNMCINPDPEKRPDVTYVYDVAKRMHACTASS

panel of 468 kinases [3] = target: T3, panel of 468 kinases (Homo sapiens, UniProt P36896); conditions: ACVR1B; 1 μM; read-out: % control
T3 construct: purchased KINOMEscan (ScanMAX) service
T3 sequence (P36896 24-505): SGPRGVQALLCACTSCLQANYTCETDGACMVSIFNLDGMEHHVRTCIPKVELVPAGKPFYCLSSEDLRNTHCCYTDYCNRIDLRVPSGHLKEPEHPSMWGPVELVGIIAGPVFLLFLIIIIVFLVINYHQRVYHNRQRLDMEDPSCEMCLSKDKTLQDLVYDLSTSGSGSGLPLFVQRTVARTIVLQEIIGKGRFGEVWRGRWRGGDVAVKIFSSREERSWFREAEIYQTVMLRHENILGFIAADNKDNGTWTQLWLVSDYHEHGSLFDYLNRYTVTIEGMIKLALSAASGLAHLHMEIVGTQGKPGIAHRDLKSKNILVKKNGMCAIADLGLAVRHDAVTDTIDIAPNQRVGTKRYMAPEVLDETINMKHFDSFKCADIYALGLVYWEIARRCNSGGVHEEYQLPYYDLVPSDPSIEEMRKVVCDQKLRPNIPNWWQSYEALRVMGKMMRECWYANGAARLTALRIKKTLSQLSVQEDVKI

panel of 468 kinases [4] = target: T4, panel of 468 kinases (Homo sapiens, UniProt P48730); conditions: CSNK1D; 1 μM; read-out: % control
T4 construct: purchased KINOMEscan (ScanMAX) service
T4 sequence (P48730 whole entry): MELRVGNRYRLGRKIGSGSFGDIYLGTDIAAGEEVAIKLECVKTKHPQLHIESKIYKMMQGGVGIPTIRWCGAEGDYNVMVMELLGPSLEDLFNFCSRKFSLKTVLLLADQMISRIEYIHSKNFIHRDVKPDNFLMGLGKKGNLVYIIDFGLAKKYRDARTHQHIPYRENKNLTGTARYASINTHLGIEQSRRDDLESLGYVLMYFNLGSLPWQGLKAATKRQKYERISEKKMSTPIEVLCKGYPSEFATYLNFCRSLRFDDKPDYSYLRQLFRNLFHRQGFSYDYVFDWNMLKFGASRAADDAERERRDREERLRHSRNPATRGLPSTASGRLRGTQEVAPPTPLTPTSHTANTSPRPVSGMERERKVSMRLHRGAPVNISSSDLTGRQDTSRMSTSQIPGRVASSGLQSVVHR

panel of 468 kinases [5] = target: T5, panel of 468 kinases (Homo sapiens, UniProt P78356); conditions: PIP5K2B; 1 μM; read-out: % control
T5 construct: purchased KINOMEscan (ScanMAX) service
T5 sequence (P78356 1-416): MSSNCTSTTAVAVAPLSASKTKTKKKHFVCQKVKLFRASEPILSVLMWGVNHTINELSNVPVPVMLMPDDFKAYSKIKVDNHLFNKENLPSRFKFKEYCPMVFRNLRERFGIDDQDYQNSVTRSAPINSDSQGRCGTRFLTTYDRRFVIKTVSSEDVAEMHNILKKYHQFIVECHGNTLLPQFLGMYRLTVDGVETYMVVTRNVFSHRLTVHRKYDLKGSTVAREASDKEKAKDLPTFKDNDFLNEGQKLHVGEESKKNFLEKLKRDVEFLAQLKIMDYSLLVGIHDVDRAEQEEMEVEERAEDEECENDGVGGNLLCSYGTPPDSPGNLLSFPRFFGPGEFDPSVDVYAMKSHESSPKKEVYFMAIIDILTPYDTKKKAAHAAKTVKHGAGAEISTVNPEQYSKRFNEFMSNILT

panel of 468 kinases [6] = target: T6, panel of 468 kinases (Homo sapiens, UniProt Q9Y6E0); conditions: MST3; 1 μM; read-out: % control
T6 construct: purchased KINOMEscan (ScanMAX) service
T6 sequence (Q9Y6E0 whole entry): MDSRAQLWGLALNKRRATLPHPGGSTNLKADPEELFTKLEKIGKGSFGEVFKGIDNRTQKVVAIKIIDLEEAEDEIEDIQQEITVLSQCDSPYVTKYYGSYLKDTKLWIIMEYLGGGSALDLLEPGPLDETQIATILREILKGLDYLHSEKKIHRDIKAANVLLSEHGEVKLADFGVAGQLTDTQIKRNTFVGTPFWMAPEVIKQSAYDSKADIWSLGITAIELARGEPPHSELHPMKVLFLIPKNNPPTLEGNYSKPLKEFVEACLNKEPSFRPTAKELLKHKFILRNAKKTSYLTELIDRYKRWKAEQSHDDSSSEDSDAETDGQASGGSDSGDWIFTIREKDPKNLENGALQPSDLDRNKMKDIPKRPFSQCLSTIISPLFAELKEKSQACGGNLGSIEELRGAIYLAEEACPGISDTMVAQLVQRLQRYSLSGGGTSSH

panel of 468 kinases [7] = target: T7, panel of 468 kinases (Homo sapiens, UniProt Q8TD08); conditions: ERK8; 1 μM; read-out: % control
T7 construct: purchased KINOMEscan (ScanMAX) service
T7 sequence (Q8TD08 1-544): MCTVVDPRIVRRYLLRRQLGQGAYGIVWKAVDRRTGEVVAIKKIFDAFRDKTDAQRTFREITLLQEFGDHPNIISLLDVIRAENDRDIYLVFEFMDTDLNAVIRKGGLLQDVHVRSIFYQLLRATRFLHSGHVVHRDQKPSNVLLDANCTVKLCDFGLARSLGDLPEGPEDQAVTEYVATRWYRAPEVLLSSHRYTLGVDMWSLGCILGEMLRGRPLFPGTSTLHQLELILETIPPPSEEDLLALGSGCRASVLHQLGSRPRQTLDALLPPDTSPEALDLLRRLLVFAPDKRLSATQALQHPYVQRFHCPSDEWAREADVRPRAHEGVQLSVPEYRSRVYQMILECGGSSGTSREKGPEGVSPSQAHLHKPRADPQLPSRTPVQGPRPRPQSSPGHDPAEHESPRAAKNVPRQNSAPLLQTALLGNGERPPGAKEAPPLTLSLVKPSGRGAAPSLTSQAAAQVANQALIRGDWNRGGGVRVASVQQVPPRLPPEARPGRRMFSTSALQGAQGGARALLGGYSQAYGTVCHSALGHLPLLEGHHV

panel of 468 kinases [8] = target: T8, panel of 468 kinases (Homo sapiens, UniProt Q96D53); conditions: ADCK4; 1 μM; read-out: % control
T8 construct: purchased KINOMEscan (ScanMAX) service
T8 sequence (Q96D53 1-544): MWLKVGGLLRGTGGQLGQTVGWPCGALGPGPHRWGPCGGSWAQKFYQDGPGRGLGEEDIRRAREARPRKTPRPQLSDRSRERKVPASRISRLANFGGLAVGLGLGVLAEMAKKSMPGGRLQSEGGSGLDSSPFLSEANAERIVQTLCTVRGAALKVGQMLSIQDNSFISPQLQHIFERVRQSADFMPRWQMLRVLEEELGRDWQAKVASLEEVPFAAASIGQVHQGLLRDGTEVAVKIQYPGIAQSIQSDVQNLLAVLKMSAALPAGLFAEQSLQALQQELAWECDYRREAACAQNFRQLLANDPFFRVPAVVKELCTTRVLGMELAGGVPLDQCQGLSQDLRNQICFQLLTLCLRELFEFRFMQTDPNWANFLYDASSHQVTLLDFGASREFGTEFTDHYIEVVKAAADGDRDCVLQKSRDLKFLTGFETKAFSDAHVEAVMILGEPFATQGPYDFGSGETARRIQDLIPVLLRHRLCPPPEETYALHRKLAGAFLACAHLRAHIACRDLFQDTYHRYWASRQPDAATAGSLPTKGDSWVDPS

panel of 468 kinases [9] = target: T9, panel of 468 kinases (Homo sapiens, UniProt Q7KZI7); conditions: MARK2; 1 μM; read-out: % control
T9 construct: purchased KINOMEscan (ScanMAX) service
T9 sequence (Q7KZI7 whole entry): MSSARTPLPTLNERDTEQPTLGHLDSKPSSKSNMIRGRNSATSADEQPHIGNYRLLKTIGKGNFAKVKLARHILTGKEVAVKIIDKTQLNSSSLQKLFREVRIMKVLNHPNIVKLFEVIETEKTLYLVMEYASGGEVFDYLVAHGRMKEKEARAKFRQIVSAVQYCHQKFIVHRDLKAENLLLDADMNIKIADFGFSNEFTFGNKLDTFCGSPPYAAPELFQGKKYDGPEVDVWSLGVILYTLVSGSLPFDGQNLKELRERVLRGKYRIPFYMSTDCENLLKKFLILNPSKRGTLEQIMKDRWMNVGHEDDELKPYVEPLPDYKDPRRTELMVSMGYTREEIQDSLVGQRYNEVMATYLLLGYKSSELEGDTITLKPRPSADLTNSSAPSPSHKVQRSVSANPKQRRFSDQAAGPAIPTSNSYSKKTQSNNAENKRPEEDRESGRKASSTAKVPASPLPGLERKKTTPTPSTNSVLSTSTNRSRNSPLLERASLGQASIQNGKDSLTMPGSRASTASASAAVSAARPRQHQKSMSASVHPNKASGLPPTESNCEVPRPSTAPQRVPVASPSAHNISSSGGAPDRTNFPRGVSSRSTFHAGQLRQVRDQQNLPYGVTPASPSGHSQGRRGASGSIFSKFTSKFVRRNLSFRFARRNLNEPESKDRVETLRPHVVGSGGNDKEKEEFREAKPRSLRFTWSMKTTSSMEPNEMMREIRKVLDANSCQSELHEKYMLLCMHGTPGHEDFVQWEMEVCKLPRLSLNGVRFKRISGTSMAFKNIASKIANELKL

panel of 468 kinases [10] = target: T10, panel of 468 kinases (Homo sapiens, UniProt P54764); conditions: EPHA4; 1 μM; read-out: % control
T10 construct: purchased KINOMEscan (ScanMAX) service
T10 sequence (P54764 20-986): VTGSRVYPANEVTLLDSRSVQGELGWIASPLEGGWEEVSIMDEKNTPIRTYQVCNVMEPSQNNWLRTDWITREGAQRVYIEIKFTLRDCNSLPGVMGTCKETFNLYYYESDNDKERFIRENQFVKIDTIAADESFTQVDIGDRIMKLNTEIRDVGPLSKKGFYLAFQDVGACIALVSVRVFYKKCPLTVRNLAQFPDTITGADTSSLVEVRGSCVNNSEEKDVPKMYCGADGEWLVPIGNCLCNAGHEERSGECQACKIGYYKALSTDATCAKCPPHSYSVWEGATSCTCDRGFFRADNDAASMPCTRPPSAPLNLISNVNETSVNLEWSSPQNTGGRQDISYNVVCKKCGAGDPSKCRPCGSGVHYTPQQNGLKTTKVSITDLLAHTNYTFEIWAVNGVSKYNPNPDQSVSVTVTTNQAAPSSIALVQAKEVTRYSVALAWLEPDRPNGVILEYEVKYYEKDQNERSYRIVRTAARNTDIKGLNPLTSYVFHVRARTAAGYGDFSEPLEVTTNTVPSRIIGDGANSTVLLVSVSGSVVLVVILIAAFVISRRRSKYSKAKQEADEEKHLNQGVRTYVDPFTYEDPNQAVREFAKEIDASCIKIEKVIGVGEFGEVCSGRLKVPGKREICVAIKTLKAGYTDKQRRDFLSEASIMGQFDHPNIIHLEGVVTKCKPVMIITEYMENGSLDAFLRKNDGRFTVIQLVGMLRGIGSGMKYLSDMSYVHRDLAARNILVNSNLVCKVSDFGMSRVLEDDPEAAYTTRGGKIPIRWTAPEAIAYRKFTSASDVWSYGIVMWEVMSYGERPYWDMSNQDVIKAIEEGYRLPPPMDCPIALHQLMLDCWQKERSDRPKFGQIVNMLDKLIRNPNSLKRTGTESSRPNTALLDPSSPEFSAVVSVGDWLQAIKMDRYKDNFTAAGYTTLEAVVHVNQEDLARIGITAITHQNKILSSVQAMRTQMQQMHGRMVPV

T1 sequence (Q2M2I8 whole entry): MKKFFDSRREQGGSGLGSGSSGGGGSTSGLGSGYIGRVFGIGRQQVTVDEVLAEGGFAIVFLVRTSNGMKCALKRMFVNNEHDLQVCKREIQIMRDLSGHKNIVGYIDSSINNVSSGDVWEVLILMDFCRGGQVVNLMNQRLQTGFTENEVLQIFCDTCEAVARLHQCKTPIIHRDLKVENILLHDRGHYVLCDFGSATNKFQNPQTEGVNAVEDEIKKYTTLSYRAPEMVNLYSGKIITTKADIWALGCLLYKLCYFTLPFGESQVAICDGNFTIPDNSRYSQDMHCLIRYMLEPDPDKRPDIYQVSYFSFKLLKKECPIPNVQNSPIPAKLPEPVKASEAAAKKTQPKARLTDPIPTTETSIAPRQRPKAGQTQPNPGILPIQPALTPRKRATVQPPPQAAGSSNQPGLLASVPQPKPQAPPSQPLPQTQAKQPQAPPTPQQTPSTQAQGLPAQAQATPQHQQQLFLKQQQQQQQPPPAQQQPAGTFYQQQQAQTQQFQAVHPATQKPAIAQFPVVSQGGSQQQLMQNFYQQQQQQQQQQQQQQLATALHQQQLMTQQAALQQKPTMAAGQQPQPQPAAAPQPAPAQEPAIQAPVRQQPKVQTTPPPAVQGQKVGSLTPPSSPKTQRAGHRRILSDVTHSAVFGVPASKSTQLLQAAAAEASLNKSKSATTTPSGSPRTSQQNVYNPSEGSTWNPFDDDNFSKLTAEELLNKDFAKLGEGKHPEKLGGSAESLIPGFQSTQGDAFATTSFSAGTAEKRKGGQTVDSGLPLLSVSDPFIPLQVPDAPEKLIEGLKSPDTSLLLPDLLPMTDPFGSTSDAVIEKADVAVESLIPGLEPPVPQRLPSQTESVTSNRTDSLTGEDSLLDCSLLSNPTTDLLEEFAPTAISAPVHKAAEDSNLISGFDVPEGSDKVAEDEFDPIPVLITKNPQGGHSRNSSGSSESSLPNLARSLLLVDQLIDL

| SMILES | remaining binding at 1 µM (panel of 468 kinases [1]) | remaining binding at 1 µM (panel of 468 kinases [2]) | remaining binding at 1 µM (panel of 468 kinases [3]) | remaining binding at 1 µM (panel of 468 kinases [4]) | remaining binding at 1 µM (panel of 468 kinases [5]) | remaining binding at 1 µM (panel of 468 kinases [6]) | remaining binding at 1 µM (panel of 468 kinases [7]) | remaining binding at 1 µM (panel of 468 kinases [8]) | remaining binding at 1 µM (panel of 468 kinases [9]) | remaining binding at 1 µM (panel of 468 kinases [10]) |
| --- | --- | --- | --- | --- | --- | --- | --- | --- | --- | --- |
| CNc1nc(Nc2ccc(S(=O)(=O)N3CCC(N4CCOCC4)CC3)cc2OC)nc2[nH]cc(Cl)c12 [Compound 12, 5-chloro-N2-(2-methoxy-4-((4-morpholinopiperidin-1-yl)sulfonyl)phenyl)-N4-methyl-7H-pyrrolo[2,3-d]pyrimidine-2,4-diamine] | 100% | 100% | 100% | 9.5% | 100% | 97% | 100% | 100% | 100% | 86% |
| CNc1nc(Nc2ccc(P3(=O)CCN(C4CCOCC4)CC3)cc2OC)nc2[nH]cc(Cl)c12 [Compound 77, 4-(4-((5-chloro-4-(methylamino)-7H-pyrrolo[2,3-d]pyrimidin-2-yl)amino)-3-methoxyphenyl)-1-(tetrahydro-2H-pyran-4-yl)-1,4-azaphosphinane 4-oxide] | 99% | 100% | 100% | 8.9% | 100% | 88% | 100% | 81% | 100% | 79% |
| CNc1nc(Nc2ccc(C(=O)N3CCC(N4CCOCC4)CC3)c3c2OCO3)nc2[nH]cc(Cl)c12 [Compound 75, (7-((5-chloro-4-(methylamino)-7H-pyrrolo[2,3-d]pyrimidin-2-yl)amino)benzo[d][1,3]dioxol-4-yl)(4-morpholinopiperidin-1-yl)methanone] | 13% | 99% | 100% | 15% | 97% | 98% | 100% | 100% | 100% | 92% |
